Measured values: paper PMC6001238, “Iterative Chemical Engineering of Vancomycin Leads to Novel Vancomycin Analogs With a High in Vitro Therapeutic Index” (Frontiers in Microbiology, 2018)
In brackets after ≈: the same amount, converted by molar mass.

Key:
E. faecalis VRE 53 = test: MIC, broth microdilution, vancomycin-resistant E. faecalis VRE 53 (VanA); type: cell-based, Enterococcus faecalis; settings: for MIC: Enterococcus faecalis VRE 53 (vancomycin-resistant), read-out: MIC; for MIC-fold improvement vs. vancomycin: VRE 53, ratio of MIC of vancomycin and MIC of analogue
Outline: (§1)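 Read-out: lowest concentration inhibiting growth in broth microdilution, CLSI method. Water and broth-only wells acted as controls; in one case 10 μM vancomycin (final) was present with the compound.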

[1] = system: Clostridium difficile AIU ribotype 027; test: MIC, plate drop assay, C. difficile AIU ribotype 027; type: cell-based; settings: for MIC-fold improvement vs. vancomycin: C. difficile AIU ribotype 027
Experimental: (§2) Bacterial lawns of both C. difficile strains were prepared by adding 0.5 mL overnight culture to 8 mL sloppy BHI agar (0.4% agar) supplemented with 1.5 g/L CaCl2⋅2H2O and 81.2 g/L MgCl2⋅6H2O, and pouring the mixture into Petri plates. A twofold dilution series of the selected vancomycin analogs, vancomycin ([…]) and daptomycin (25 μM) was spotted (10 μL) on the bacterial lawn. Spots were air-dried and the plates were incubated overnight at 37°C in an anaerobic cabinet. Ultrapure water was included as negative control. The assay was performed in triplicate. Inhibition was observed by cleared spots.

S. aureus VRSA = test: MIC, broth microdilution, vancomycin-resistant S. aureus (VRSA); type: cell-based, Staphylococcus aureus; settings: for MIC: Staphylococcus aureus VRSA, read-out: MIC; for MIC-fold improvement vs. vancomycin: VRSA, ratio of MIC of vancomycin and MIC of analogue
Outline: as §1

[2] = system: S. aureus VSSA (ATCC 6538); test: MIC, broth microdilution, vancomycin-sensitive S. aureus (VSSA/MSSA, ATCC 6538); type: cell-based, Staphylococcus aureus; settings: for MIC: Staphylococcus aureus VSSA, read-out: MIC; for MIC-fold improvement vs. vancomycin: VSSA, ratio of MIC of vancomycin and MIC of analogue
Outline: as §1

[3] = system: Clostridium difficile ATJ ribotype 014/20; test: MIC, plate drop assay, C. difficile ATJ ribotype 014/20; type: cell-based; settings: for MIC-fold improvement vs. vancomycin: C. difficile ATJ ribotype 014/20
Experimental: as §2

E. faecalis VRE 29 = test: MIC, broth microdilution, vancomycin-resistant E. faecalis VRE 29 (VanA); type: cell-based, Enterococcus faecalis; settings: for MIC: Enterococcus faecalis VRE 29 (vancomycin-resistant), read-out: MIC
Outline: as §1

S. aureus VISA/HIP5827 = test: MIC, broth microdilution, vancomycin-intermediate S. aureus VISA HIP5827; type: cell-based, Staphylococcus aureus; settings: for MIC: Staphylococcus aureus VISA/HIP5827, read-out: MIC; for MIC-fold improvement vs. vancomycin: VISA/HIP5827, ratio of MIC of vancomycin and MIC of analogue
Outline: as §1

E. faecalis VSE 1 = test: MIC, broth microdilution, vancomycin-sensitive E. faecalis (VSE 1); type: cell-based, Enterococcus faecalis; settings: for MIC: Enterococcus faecalis VSE 1 (vancomycin-sensitive), read-out: MIC; for MIC-fold improvement vs. vancomycin: VSE 1, ratio of MIC of vancomycin and MIC of analogue
Outline: as §1

E. faecalis VRE 37 = test: MIC, broth microdilution, vancomycin-resistant E. faecalis VRE 37 (VanA); type: cell-based, Enterococcus faecalis; settings: for MIC: Enterococcus faecalis VRE 37 (vancomycin-resistant), read-out: MIC; for MIC-fold improvement vs. vancomycin: VRE 37, ratio of MIC of vancomycin and MIC of analogue
Outline: as §1

[4] = system: L1210, CEM and HeLa cell lines; test: Cytostatic activity, average or summary over L1210, CEM and HeLa; type: cell-based; settings: average of L1210, CEM and HeLa; read-out: Toxicity (IC50) Average
Outline: (§3)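 Coulter counter cell counts after 37°C culture with compound; IC50 = concentration giving 50% growth inhibition vs negative control. Incubation: L1210 2 d, CEM 3 d, HeLa 4 d. Suspension density before mixing with an equal volume of dilution: 300,000–500,000 cells/mL.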

MRSA KS6 = test: MIC, broth microdilution, MRSA KS6; type: cell-based, Staphylococcus aureus; settings: for MIC-fold improvement vs. vancomycin: MRSA KS6, ratio of MIC of vancomycin and MIC of analogue; for MIC: Staphylococcus aureus MRSA KS6, read-out: MIC
Outline: as §1

MRSA KS1 = test: MIC, broth microdilution, MRSA KS1; type: cell-based, Staphylococcus aureus; settings: for MIC-fold improvement vs. vancomycin: MRSA KS1, ratio of MIC of vancomycin and MIC of analogue; for MIC: Staphylococcus aureus MRSA KS1, read-out: MIC
Outline: as §1

[5] = system: human cervix carcinoma (HeLa) cells; test: Cytostatic activity, HeLa cell proliferation; type: cell-based; settings: mean ± SD of three experiments; highest concentration tested 250 µM; 4 days; read-out: Toxicity (IC50) HeLa
Outline: as §3

[6] = system: human T-lymphocyte (CEM) cells; test: Cytostatic activity, CEM cell proliferation; type: cell-based; settings: mean ± SD of three experiments; highest concentration tested 250 µM; 3 days; read-out: Toxicity (IC50) CEM
Outline: as §3

MRSA KS89 = test: MIC, broth microdilution, MRSA KS89; type: cell-based, Staphylococcus aureus; settings: for MIC-fold improvement vs. vancomycin: MRSA KS8, ratio of MIC of vancomycin and MIC of analogue; for MIC: Staphylococcus aureus MRSA KS8, read-out: MIC
Outline: as §1

[7] = system: Murine leukemia (L1210) cells; test: Cytostatic activity, L1210 cell proliferation; type: cell-based; settings: mean ± SD of three experiments; highest concentration tested 250 µM; 2 days; read-out: Toxicity (IC50) L1210
Outline: as §3

MRSA KS2 = test: MIC, broth microdilution, MRSA KS2; type: cell-based, Staphylococcus aureus; settings: for MIC-fold improvement vs. vancomycin: MRSA KS2, ratio of MIC of vancomycin and MIC of analogue; for MIC: Staphylococcus aureus MRSA KS2, read-out: MIC
Outline: as §1

E. faecalis VRE 6 = test: MIC, broth microdilution, vancomycin-resistant E. faecalis VRE 6 (VanA); type: cell-based, Enterococcus faecalis; settings: for MIC: Enterococcus faecalis VRE 6 (vancomycin-resistant), read-out: MIC; for MIC-fold improvement vs. vancomycin: VRE 6, ratio of MIC of vancomycin and MIC of analogue
Outline: as §1

Compound | MIC (E. faecalis VRE 53) [µM] | MIC-fold improvement vs. vancomycin (E. faecalis VRE 53) | MIC-fold improvement vs. vancomycin [1] | MIC (S. aureus VRSA) [µM] | MIC-fold improvement vs. vancomycin (S. aureus VRSA) | MIC [2] [µM] | MIC-fold improvement vs. vancomycin [2] | MIC-fold improvement vs. vancomycin [3] | MIC (E. faecalis VRE 29) [µM] | MIC (S. aureus VISA/HIP5827) [µM] | MIC-fold improvement vs. vancomycin (S. aureus VISA/HIP5827) | MIC (E. faecalis VSE 1) [µM] | MIC-fold improvement vs. vancomycin (E. faecalis VSE 1) | MIC (E. faecalis VRE 37) [µM] | MIC-fold improvement vs. vancomycin (E. faecalis VRE 37) | IC50 [4] [µM] | MIC-fold improvement vs. vancomycin (MRSA KS6) | MIC (MRSA KS6) [µM] | MIC-fold improvement vs. vancomycin (MRSA KS1) | MIC (MRSA KS1) [µM] | other results
CNC(CC(C)C)C(=O)NC1C(=O)NC(CC(N)=O)C(=O)NC2C(=O)NC3C(=O)NC(C(=O)NC(C(=O)NCCCNC(=O)c4ccc(-c5ccc(F)cc5)cc4)c4cc(O)cc(O)c4-c4cc3ccc4O)C(O)c3ccc(c(Cl)c3)Oc3cc2cc(c3OC2OC(CO)C(O)C(O)C2OC2CC(C)(N)C(O)C(C)O2)Oc2ccc(cc2Cl)C1O (stereo not shown) [Vanc-34] | 12.5 (≈ 21.3 µg/mL) | 32 | 29 | 0.78 (≈ 1.33 µg/mL) | 128 | 0.10 (≈ 0.17 µg/mL) | 8 | 22 | 3.13 (≈ 5.33 µg/mL) | 0.10 (≈ 0.17 µg/mL) | 64 | 0.20 (≈ 0.341 µg/mL) | 8 | 6.25 (≈ 10.6 µg/mL) | 64 | 62 | 4 | 0.20 (≈ 0.341 µg/mL) | 4 | 0.20 (≈ 0.341 µg/mL) | MIC ([1]; C. difficile AIU ribotype 027, plate drop assay): 1.56 µM (≈ 2.66 µg/mL); MIC ([3]; C. difficile ATJ ribotype 014/20, plate drop assay): 1.56 µM (≈ 2.66 µg/mL); MIC-fold improvement vs. vancomycin (E. faecalis VRE 29; VRE 29, ratio of MIC of vancomycin and MIC of analogue): 128; IC50 [5]: 110 ± 8 µM; IC50 [6]: 34 ± 2 µM; MIC-fold improvement vs. vancomycin (MRSA KS89): 4; MIC (MRSA KS89): 0.20 µM (≈ 0.341 µg/mL); IC50 [7]: 42 ± 7 µM; MIC-fold improvement vs. vancomycin (MRSA KS2): 8; MIC (MRSA KS2): 0.10 µM (≈ 0.17 µg/mL); MIC (E. faecalis VRE 6): 0.39 µM (≈ 0.664 µg/mL); MIC-fold improvement vs. vancomycin (E. faecalis VRE 6): 513
CN[C@H](CC(C)C)C(=O)N[C@H]1C(=O)N[C@@H](CC(N)=O)C(=O)N[C@H]2C(=O)N[C@H]3C(=O)N[C@H](C(=O)N[C@H](C(=O)NCC(=O)Nc4ccc(Cl)cc4Cl)c4cc(O)cc(O)c4-c4cc3ccc4O)[C@H](O)c3ccc(c(Cl)c3)Oc3cc2cc(c3O[C@@H]2O[C@H](CO)[C@@H](O)[C@H](O)[C@H]2O[C@H]2C[C@](C)(N)[C@H](O)[C@H](C)O2)Oc2ccc(cc2Cl)[C@H]1O [Vanc-14] | 3.13 (≈ 5.17 µg/mL) | 128 | 29 | 3.13 (≈ 5.17 µg/mL) | 32 | 0.20 (≈ 0.33 µg/mL) | 4 | 22 | 3.13 (≈ 5.17 µg/mL) | 0.10 (≈ 0.165 µg/mL) | 64 | 0.20 (≈ 0.33 µg/mL) | 8 | 6.25 (≈ 10.3 µg/mL) | 128 | 138 | 2 | 0.39 (≈ 0.644 µg/mL) | 2 | 0.39 (≈ 0.644 µg/mL) | IC50 [5]: 148 ± 6 µM; IC50 [6]: 114 ± 18 µM; MIC-fold improvement vs. vancomycin (MRSA KS89): 4; MIC (MRSA KS89): 0.20 µM (≈ 0.33 µg/mL); IC50 [7]: 153 ± 55 µM; MIC-fold improvement vs. vancomycin (MRSA KS2): 4; MIC (MRSA KS2): 0.20 µM (≈ 0.33 µg/mL); MIC (E. faecalis VRE 6): 1.56 µM (≈ 2.57 µg/mL); MIC-fold improvement vs. vancomycin (E. faecalis VRE 6): 128
